Values of other authors as cited in patent publication US6849589B2, “Cleaning composition” (3M Innovative Properties Company, priority 2001, dated 2005).

Details: in water, at about 20° C.

| SMILES | water solubility |
| --- | --- |
| CCCCCCCCN1CCCC1=O [N-octyl pyrrolidone] | about 0.124 weight percent |
| CC(C)CCCCCO [isooctyl alcohol] | about 0.06 weight percent |
| CC(C)CC(=O)CC(C)C [di-isobutyl ketone] | about 0.05 weight percent |
| CCCCCCCCO [Example 1-octanol, 1-octanol] | about 0.1 weight percent |
